From US20080214456A1, “Lkktet and/or Lkktnt Peptide Compositions and Methods” (REGENERX BIOPHARMACEUTICALS, INC., priority 2005, published 2008)

How the values were obtained:
[1] = test system: Human corneal epithelial cells; experiment: BrdU incorporation cell proliferation assay in BAK-exposed corneal epithelial cells; format: cell-based
Procedure: (§1) Human corneal epithelial cells at approximately 80% confluence were treated with 0%, 0.001%, 0.01%, or 0.1% BAK for 15 minutes. After 3 and 24 hours of recovery in culture medium, cell proliferation was measured using a calorimetric BrdU incorporation assay. Apoptosis was measured using a calorimetric annexin-based cell death assay. […] To further assess the ability of Tb4 to prevent apoptosis, corneal epithelial cells were treated with 0.01% BAK±Tβ4 over a 5 day time course.

[2] = test system: Human corneal epithelial cells; experiment: annexin-based cell death (apoptosis) assay in BAK-exposed corneal epithelial cells
Procedure: as §1

[3] = 1 mcg/ml Tβ4, BAK-treated cells, 3 and 24 hour time points
[4] = 0.001%, 0.01% or 0.1% BAK for 15 minutes, 3 and 24 hours recovery

Substance	cell proliferation of BAK-treated cells in presence of Tβ4 [1, 3]	BAK-initiated epithelial cell apoptosis ([2]; 0.01% BAK ± Tβ4, longer times in culture (2 to 5 days))	apoptosis of BAK-treated cells in presence of Tβ4 [2, 3]	apoptosis compared to cells cultured in medium alone ([2]; 5 days in culture, no BAK comparison (medium alone))	corneal epithelial cell proliferation compared to control [1, 4]	apoptosis compared to control [2, 4]
Thymosin beta 4 (SDKPDMAEIEKFDKSKLKKTETQEKNPLPSKETIEQEKQAGES; Thymosin beta-4; UniProt P62328 2-44, looked up) [Tβ4]	not promoted	significantly inhibited	not inhibited	decreased apoptosis		
benzalkonium chloride [BAK, reference compound]					inhibited	increased
